# Assay results from PubChem BioAssay AID256 (DTP/NCI, 2004).
# Where “and” joins values, the source holds several entries; their conditions need not be identical. Equal entries are not always repeated. Toxic doses and inconclusive results are not listed.
# Tested on: CD2F1 mice, L1210 leukemia ip, survival T/C
# Assay: NCI In Vivo Anticancer Drug Screen. Data for tumor model L1210 Leukemia (intraperitoneal) in CD2F1 (CDF1) mice
# Conditions: higher = longer survival
# Method in brief: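 Tumor-bearing mice (transplanted tumor) were split into treated and vehicle control groups, and the measured endpoint of each treated group was divided by that of its vehicle controls.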
structure (smiles),measurement,setting,value
NC(CSC(c1ccccc1)(c1ccccc1)c1ccccc1)C(=O)O (stereo unspecified),T/C,"endpoint: mean survival time, dose: 0.48 mg/kg/injection, schedule: Q03HX024 (oral), vehicle: saline",103 % of control
same,T/C,"endpoint: mean survival time, dose: 0.94 mg/kg/injection, schedule: Q03HX024 (oral), vehicle: saline",105 % of control
same,T/C,"endpoint: mean survival time, dose: 1.88 mg/kg/injection, schedule: Q03HX008 (oral), vehicle: saline",109 % of control
same,T/C,"endpoint: mean survival time, dose: 1.88 mg/kg/injection, schedule: Q03HX024 (oral), vehicle: saline",109 % of control
same,T/C,"endpoint: mean survival time, dose: 3.9 mg/kg/injection, schedule: Q04DX003 (ip), vehicle: water",102 % of control
same,T/C,"endpoint: mean survival time, dose: 5.0 mg/kg/injection, schedule: Q03HX024 (ip), vehicle: water",122 % of control and 106 % of control
same,T/C,"endpoint: mean survival time, dose: 5.9 mg/kg/injection, schedule: Q04DX003 (ip), vehicle: water",102 % of control
same,T/C,"endpoint: mean survival time, dose: 6.25 mg/kg/injection, schedule: Q01DX009 (sc), vehicle: saline",101 % of control
same,T/C,"endpoint: mean survival time, dose: 8.8 mg/kg/injection, schedule: Q04DX003 (ip), vehicle: water",103 % of control
same,T/C,"endpoint: mean survival time, dose: 10.0 mg/kg/injection, schedule: Q01DX009 (ip), vehicle: water",112 % of control
same,T/C,"endpoint: mean survival time, dose: 10.0 mg/kg/injection, schedule: Q03HX008 (ip), vehicle: water",120 % of control
same,T/C,"endpoint: mean survival time, dose: 10.0 mg/kg/injection, schedule: Q03HX016 (ip), vehicle: water",114 % of control
same,T/C,"endpoint: mean survival time, dose: 10.0 mg/kg/injection, schedule: Q03HX024 (ip), vehicle: clinical formulation",103 % of control
same,T/C,"endpoint: mean survival time, dose: 10.0 mg/kg/injection, schedule: Q03HX024 (ip), vehicle: saline",112 % of control
same,T/C,"endpoint: mean survival time, dose: 10.0 mg/kg/injection, schedule: Q03HX024 (ip), vehicle: water",151 % of control
same,T/C,"endpoint: mean survival time, dose: 12.5 mg/kg/injection, schedule: Q01DX009 (sc), vehicle: saline",107 % of control
same,T/C,"endpoint: mean survival time, dose: 13.2 mg/kg/injection, schedule: Q04DX003 (ip), vehicle: water",123 % of control
same,T/C,"endpoint: mean survival time, dose: 15.0 mg/kg/injection, schedule: Q01DX005 (oral), vehicle: saline",98 % of control
same,T/C,"endpoint: mean survival time, dose: 15.0 mg/kg/injection, schedule: Q01DX009 (oral), vehicle: saline",116 % of control
same,T/C,"endpoint: mean survival time, dose: 15.0 mg/kg/injection, schedule: Q03HX008 (oral), vehicle: saline",155 % of control
same,T/C,"endpoint: mean survival time, dose: 15.0 mg/kg/injection, schedule: Q03HX024 (oral), vehicle: saline",115 % of control
same,T/C,"endpoint: mean survival time, dose: 20.0 mg/kg/injection, schedule: Q01DX009 (sc), vehicle: water",123 % of control
same,T/C,"endpoint: mean survival time, dose: 20.0 mg/kg/injection, schedule: Q03HX008 (ip), vehicle: water",123 % of control
same,T/C,"endpoint: mean survival time, dose: 20.0 mg/kg/injection, schedule: Q03HX024 (ip), vehicle: clinical formulation",108 % of control
same,T/C,"endpoint: mean survival time, dose: 20.0 mg/kg/injection, schedule: Q03HX024 (ip), vehicle: saline",116 % of control
same,T/C,"endpoint: mean survival time, dose: 20.0 mg/kg/injection, schedule: Q04DX003 (ip), vehicle: water",123 % of control
same,T/C,"endpoint: mean survival time, dose: 30.0 mg/kg/injection, schedule: Q01DX005 (oral), vehicle: saline",100 % of control
same,T/C,"endpoint: mean survival time, dose: 30.0 mg/kg/injection, schedule: Q01DX009 (oral), vehicle: saline",106 % of control
same,T/C,"endpoint: mean survival time, dose: 30.0 mg/kg/injection, schedule: Q04DX003 (oral), vehicle: saline",101 % of control
same,T/C,"endpoint: mean survival time, dose: 40.0 mg/kg/injection, schedule: Q03HX024 (ip), vehicle: clinical formulation",121 % of control
same,T/C,"endpoint: mean survival time, dose: 40.0 mg/kg/injection, schedule: Q03HX024 (ip), vehicle: water",92 % of control
same,T/C,"endpoint: mean survival time, dose: 45.0 mg/kg/injection, schedule: Q04DX003 (ip), vehicle: water",114 % of control
same,T/C,"endpoint: mean survival time, dose: 50.0 mg/kg/injection, schedule: Q01DX001 (sc), vehicle: saline",120 % of control
same,T/C,"endpoint: mean survival time, dose: 60.0 mg/kg/injection, schedule: Q01DX005 (oral), vehicle: saline",111 % of control
same,T/C,"endpoint: mean survival time, dose: 60.0 mg/kg/injection, schedule: Q04DX003 (oral), vehicle: saline",106 % of control
same,T/C,"endpoint: mean survival time, dose: 80.0 mg/kg/injection, schedule: Q01DX001 (ip), vehicle: water",104 % of control
same,T/C,"endpoint: mean survival time, dose: 80.0 mg/kg/injection, schedule: Q01DX009 (oral), vehicle: water",157 % of control
same,T/C,"endpoint: mean survival time, dose: 80.0 mg/kg/injection, schedule: Q03HX024 (ip), vehicle: clinical formulation",150 % of control
same,T/C,"endpoint: mean survival time, dose: 80.0 mg/kg/injection, schedule: Q03HX024 (ip), vehicle: saline",154 % of control
same,T/C,"endpoint: mean survival time, dose: 80.0 mg/kg/injection, schedule: Q04DX003 (ip), vehicle: water",121 % of control
same,T/C,"endpoint: mean survival time, dose: 80.0 mg/kg/injection, schedule: Q08DX002 (ip), vehicle: saline",102 % of control
same,T/C,"endpoint: mean survival time, dose: 100.0 mg/kg/injection, schedule: Q01DX001 (sc), vehicle: saline",115 % of control
same,T/C,"endpoint: mean survival time, dose: 120.0 mg/kg/injection, schedule: Q01DX001 (oral), vehicle: saline",102 % of control
same,T/C,"endpoint: mean survival time, dose: 120.0 mg/kg/injection, schedule: Q01DX005 (oral), vehicle: saline",123 % of control
same,T/C,"endpoint: mean survival time, dose: 120.0 mg/kg/injection, schedule: Q04DX003 (oral), vehicle: saline",108 % of control
same,T/C,"endpoint: mean survival time, dose: 160.0 mg/kg/injection, schedule: Q01DX001 (oral), vehicle: water",115 % of control
same,T/C,"endpoint: mean survival time, dose: 160.0 mg/kg/injection, schedule: Q03HX024 (ip), vehicle: clinical formulation",152 % of control
same,T/C,"endpoint: mean survival time, dose: 160.0 mg/kg/injection, schedule: Q03HX024 (ip), vehicle: saline",234 % of control
same,T/C,"endpoint: mean survival time, dose: 200.0 mg/kg/injection, schedule: Q01DX009 (sc), vehicle: saline",86 % of control
same,T/C,"endpoint: mean survival time, dose: 240.0 mg/kg/injection, schedule: Q01DX001 (oral), vehicle: saline",107 % of control
same,T/C,"endpoint: mean survival time, dose: 240.0 mg/kg/injection, schedule: Q01DX009 (oral), vehicle: saline",103 % of control
same,T/C,"endpoint: mean survival time, dose: 240.0 mg/kg/injection, schedule: Q04DX003 (oral), vehicle: saline",111 % of control
same,T/C,"endpoint: mean survival time, dose: 320.0 mg/kg/injection, schedule: Q03HX024 (ip), vehicle: saline",86 % of control
same,T/C,"endpoint: mean survival time, dose: 400.0 mg/kg/injection, schedule: Q01DX001 (sc), vehicle: saline",108 % of control
same,T/C,"endpoint: mean survival time, dose: 480.0 mg/kg/injection, schedule: Q01DX001 (oral), vehicle: saline",107 % of control
same,T/C,"endpoint: mean survival time, dose: 480.0 mg/kg/injection, schedule: Q01DX005 (oral), vehicle: saline",97 % of control
same,T/C,"endpoint: mean survival time, dose: 480.0 mg/kg/injection, schedule: Q01DX009 (oral), vehicle: saline",96 % of control
same,T/C,"endpoint: mean survival time, dose: 640.0 mg/kg/injection, schedule: Q01DX001 (oral), vehicle: water",108 % of control
same,T/C,"endpoint: mean survival time, dose: 640.0 mg/kg/injection, schedule: Q01DX001 (sc), vehicle: water",180 % of control
same,T/C,"endpoint: mean survival time, dose: 800.0 mg/kg/injection, schedule: Q01DX001 (sc), vehicle: saline",106 % of control
same,T/C,"endpoint: mean survival time, dose: 960.0 mg/kg/injection, schedule: Q04DX003 (oral), vehicle: saline",150 % of control
same,T/C,"endpoint: median survival time, dose: 3.9 mg/kg/injection, schedule: Q01DX009 (ip), vehicle: clinical formulation",91 % of control
same,T/C,"endpoint: median survival time, dose: 5.0 mg/kg/injection, schedule: Q03HX024 (ip), vehicle: water",111 % of control
same,T/C,"endpoint: median survival time, dose: 7.8 mg/kg/injection, schedule: Q01DX009 (ip), vehicle: clinical formulation",94 % of control
same,T/C,"endpoint: median survival time, dose: 10.0 mg/kg/injection, schedule: Q01DX009 (ip), vehicle: water",88 % of control
same,T/C,"endpoint: median survival time, dose: 10.0 mg/kg/injection, schedule: Q03HX024 (ip), vehicle: water",122 % of control
same,T/C,"endpoint: median survival time, dose: 10.0 mg/kg/injection, schedule: Q04DX003 (ip), vehicle: water",111 % of control
same,T/C,"endpoint: median survival time, dose: 15.6 mg/kg/injection, schedule: Q01DX009 (ip), vehicle: clinical formulation",121 % of control
same,T/C,"endpoint: median survival time, dose: 20.0 mg/kg/injection, schedule: Q01DX009 (oral), vehicle: water",111 % of control
same,T/C,"endpoint: median survival time, dose: 20.0 mg/kg/injection, schedule: Q03HX024 (ip), vehicle: water",150 % of control
same,T/C,"endpoint: median survival time, dose: 20.0 mg/kg/injection, schedule: Q04DX003 (ip), vehicle: water",88 % of control
same,T/C,"endpoint: median survival time, dose: 31.3 mg/kg/injection, schedule: Q01DX009 (ip), vehicle: clinical formulation",118 % of control
same,T/C,"endpoint: median survival time, dose: 31.3 mg/kg/injection, schedule: Q01DX009 (oral), vehicle: clinical formulation",121 % of control
same,T/C,"endpoint: median survival time, dose: 31.3 mg/kg/injection, schedule: Q03HX008 (oral), vehicle: clinical formulation",121 % of control
same,T/C,"endpoint: median survival time, dose: 31.3 mg/kg/injection, schedule: Q03HX024 (oral), vehicle: clinical formulation",88 % of control
same,T/C,"endpoint: median survival time, dose: 40.0 mg/kg/injection, schedule: Q01DX009 (ip), vehicle: water",88 % of control
same,T/C,"endpoint: median survival time, dose: 40.0 mg/kg/injection, schedule: Q01DX009 (oral), vehicle: water",111 % of control
same,T/C,"endpoint: median survival time, dose: 40.0 mg/kg/injection, schedule: Q04DX003 (ip), vehicle: water",88 % of control
same,T/C,"endpoint: median survival time, dose: 62.5 mg/kg/injection, schedule: Q03HX008 (oral), vehicle: clinical formulation",164 % of control
same,T/C,"endpoint: median survival time, dose: 62.5 mg/kg/injection, schedule: Q03HX016 (oral), vehicle: clinical formulation",90 % of control
same,T/C,"endpoint: median survival time, dose: 80.0 mg/kg/injection, schedule: Q04DX003 (ip), vehicle: water",105 % of control
same,T/C,"endpoint: median survival time, dose: 125.0 mg/kg/injection, schedule: Q01DX009 (oral), vehicle: clinical formulation",114 % of control
same,T/C,"endpoint: median survival time, dose: 125.0 mg/kg/injection, schedule: Q03HX016 (oral), vehicle: clinical formulation",90 % of control
same,T/C,"endpoint: median survival time, dose: 125.0 mg/kg/injection, schedule: Q04DX003 (oral), vehicle: clinical formulation",151 % of control
same,T/C,"endpoint: median survival time, dose: 160.0 mg/kg/injection, schedule: Q01DX009 (oral), vehicle: water",116 % of control
same,T/C,"endpoint: median survival time, dose: 250.0 mg/kg/injection, schedule: Q01DX001 (oral), vehicle: clinical formulation",119 % of control
same,T/C,"endpoint: median survival time, dose: 250.0 mg/kg/injection, schedule: Q04DX003 (oral), vehicle: clinical formulation",184 % of control
same,T/C,"endpoint: median survival time, dose: 250.0 mg/kg/injection, schedule: Q08DX002 (oral), vehicle: clinical formulation",151 % of control
same,T/C,"endpoint: median survival time, dose: 500.0 mg/kg/injection, schedule: Q01DX001 (oral), vehicle: clinical formulation",98 % of control
same,T/C,"endpoint: median survival time, dose: 500.0 mg/kg/injection, schedule: Q04DX003 (oral), vehicle: clinical formulation",98 % of control
same,T/C,"endpoint: median survival time, dose: 500.0 mg/kg/injection, schedule: Q08DX002 (oral), vehicle: clinical formulation",191 % of control
